Measurements published in patent US20040110821A1, “GAL3 receptor antagonists for the treatment of affective disorders” (priority 2002, published 2004).

Columns and labels:
[1] = target: T1, 5HT transporter (Rattus norvegicus, UniProt P31652); assay: Binding at native 5HT transporter; conditions: read-out: r5HT Uptk Ki
T1 construct: native, tissue-derived transporters; from tissue
Experimental: The methods to determine binding affinity at native transporters are described in the following publications: 5HT transporter and NE transporter (Owens et al., 1997), and DA transporter (Javitch et al, 1984).
(§1) Binding data were analyzed using nonlinear regression and statistical techniques available in the GraphPAD Prism package (San Diego, Calif.). Enzymatic assay data were derived from a standard curve of reference compound data.

[2] = target: T2, human 5HT4 receptor (Homo sapiens, UniProt Q13639); assay: Radioligand binding at 5-HT4 receptor; conditions: read-out: h5HT4 Ki
T2 construct: expressed in transfected cells
T2 sequence (Q13639 whole entry): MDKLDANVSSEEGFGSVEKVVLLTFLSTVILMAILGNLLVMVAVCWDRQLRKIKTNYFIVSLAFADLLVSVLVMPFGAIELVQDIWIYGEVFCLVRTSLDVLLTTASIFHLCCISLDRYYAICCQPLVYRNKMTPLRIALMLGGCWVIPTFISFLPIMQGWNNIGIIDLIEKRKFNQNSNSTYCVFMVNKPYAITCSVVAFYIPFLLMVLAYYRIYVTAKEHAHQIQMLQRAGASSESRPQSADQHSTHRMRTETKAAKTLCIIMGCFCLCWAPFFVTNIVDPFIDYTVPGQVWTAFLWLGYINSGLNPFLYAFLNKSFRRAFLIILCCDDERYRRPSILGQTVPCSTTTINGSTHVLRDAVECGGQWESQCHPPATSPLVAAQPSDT
Experimental: Other 5-HT ReceDtors: Other serotonin receptor binding assays were performed according to published methods: rat 5HT2c receptor (Julius et al., 1988); and 5-HT6 (Monsma, et al., 1993). The binding assays using the 5-HT4 receptor were performed according to the procedures described in U.S. Pat. No. 5,766,879, the disclosure of which is hereby incorporated by reference in its entirety into this application.
as §1

[3] = target: T3, human dopamine D5 receptor (Homo sapiens, UniProt P21918); assay: Binding at dopamine D5 receptor; conditions: read-out: hD5 Ki
T3 construct: expressed in transfected cells
T3 sequence (P21918 whole entry): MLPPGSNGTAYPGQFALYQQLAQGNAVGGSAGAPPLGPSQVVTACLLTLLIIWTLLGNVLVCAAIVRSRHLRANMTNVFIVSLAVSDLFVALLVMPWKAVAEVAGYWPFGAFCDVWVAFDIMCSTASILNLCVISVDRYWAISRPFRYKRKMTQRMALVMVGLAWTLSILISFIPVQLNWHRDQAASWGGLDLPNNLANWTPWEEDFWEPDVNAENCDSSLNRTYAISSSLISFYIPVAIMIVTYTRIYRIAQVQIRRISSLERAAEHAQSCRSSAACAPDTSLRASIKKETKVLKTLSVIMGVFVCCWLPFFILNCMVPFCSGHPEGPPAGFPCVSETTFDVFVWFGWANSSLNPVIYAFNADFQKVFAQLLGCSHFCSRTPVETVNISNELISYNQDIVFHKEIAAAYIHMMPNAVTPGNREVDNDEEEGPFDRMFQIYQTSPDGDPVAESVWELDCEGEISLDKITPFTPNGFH
Excerpt: Other receptors: Cell membranes expressing human dopamine D1, D2, D4 and rat D3 receptors were purchased through BioSignal, Inc. (Montreal, Canada). Binding assays using the histamine H1 receptor; dopamine receptors; and α1A, α1B, and α2 adrenergic receptors may be carried out according to the procedures described in U.S. Pat. No. 5,780,485, the disclosure of which is hereby incorporated by reference in its entirety into this application. Binding assays using the dopamine D5 receptor may be carried out according to the procedures described in U.S. Pat. No. 5,882,855, the disclosure of which is hereby incorporated by reference in its entirety into this application. Binding assays for the human α1D adrenergic receptor may be carried out according to the procedures described in U.S. Pat. No. 6,156,518, the disclosure of which is hereby incorporated by reference in its entirety into this application.
as §1

[4] = target: T4, human GAL2 receptor (Homo sapiens, UniProt O43603); assay: Radioligand binding at cloned human GAL2 receptor; conditions: indolones, Table 4, read-out: Ki (nM) GalR 2
T4 construct: expressed in transfected cells
T4 sequence (O43603 1-387): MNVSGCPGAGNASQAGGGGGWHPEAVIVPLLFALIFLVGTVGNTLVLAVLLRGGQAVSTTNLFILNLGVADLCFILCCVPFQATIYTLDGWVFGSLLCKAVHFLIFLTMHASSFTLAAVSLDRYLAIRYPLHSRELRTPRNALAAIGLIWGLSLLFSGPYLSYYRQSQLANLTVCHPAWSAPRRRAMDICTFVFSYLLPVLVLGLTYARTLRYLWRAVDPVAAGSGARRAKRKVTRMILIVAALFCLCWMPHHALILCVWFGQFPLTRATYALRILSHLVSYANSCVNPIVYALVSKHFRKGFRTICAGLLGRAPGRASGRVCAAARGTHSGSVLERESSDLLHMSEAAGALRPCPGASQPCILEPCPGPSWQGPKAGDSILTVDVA
Experimental: The present invention provides for a method of determining the binding affinity of a GAL3 antagonist, wherein the GAL3 antagonist is dissolved in a “suitable solvent”. A “suitable solvent” means one which permits the measurement of binding affinity of the GAL3 antagonist to the human GAL3 receptor at concentrations less than 1 μM, preferably less than 100 nM. Examples of solvents include, but are not limited to, DMSO, ethanol, N,N-dimethylacetamide, or water. For indolones, the preferred solvent is 3% DMSO (final concentration in the assay). For pyrimidines, the preferred solvent is 1% ethanol/0.09% polypuronic acid F-127 (final concentration in the assay). For any other type of compounds, the preferred solvent is the solvent which permits the measurement of binding affinity of a GAL3 antagonist at the lowest concentration. Once a suitable solvent is ascertained for the binding assay of the human GAL3 receptor, the same solvent is used in assays to determine the binding affinity for instance, at the GAL1 receptor.
The binding properties of the pyrimidines of the present invention were evaluated at the cloned human galanin receptors, GAL1, GAL2, and GAL3, using protocols described herein.
The binding properties of the indolones of the present invention were evaluated at the cloned human galanin receptors, GAL1, GAL2, and GAL3, using protocols described herein.
LM(tk-) cells were stably transfected with the human GAL1 or GAL3 receptor. CHO cells were stably transfected with the human GAL2 receptor.
cDNAs for the human and rat GAL1, and human and rat GAL3 receptors were transfected with a G-418 resistant gene into the mouse fibroblast LM(tk-) cell line by a calcium phosphate transfection method (Cullen, 1967). Stably transfected cells were selected with G-418. Human and rat GAL2 receptors were similarly transfected into CHO cells.
Membranes were harvested from stably transfected LM(tk-) cells. Adherent cells were washed twice in ice-cold phosphate buffered saline (138 mM NaCl, 8.1 mM Na2HPO4, 2.5 mM KCl, 1.2 mM KH2PO4, 0.9 mM CaCl2, 0.5 mM MgCl2, pH 7.4) and lysed by sonication in ice-cold sonication buffer (20 mM Tris-HCl, 5 mM EDTA, pH 7.7). Large particles and debris were cleared by low speed centrifugation (200×g, 5 min, 4° C.). Membranes were collected from the supernatant fraction by centrifugation (32,000×g, 18 min, 4° C.), washed with ice-cold hypotonic buffer, and collected again by centrifugation (32,000×g, 18 min, 4° C.). The final membrane pellet was resuspended by sonication into a small volume of ice-cold binding buffer (−1 ml for every 5 plates: 10 mM NaCl, 20 mM HEPES, 0.22 mM KH2PO4, 1.26 mM CaCl2, 0.81 mM MgSO4, pH 7.4). Protein concentration was measured by the Bradford method (Bradford, 1976) using Bio-Rad Reagent, with bovine serum albumin as a standard. Membranes were held on ice for up to one hour and used fresh, or flash frozen and stored in liquid nitrogen. Membranes were prepared similarly from CHO cells.
Galanin Receptors: Binding assays were performed according to the following published methods: human GAL3 (PCT International Publication No. WO 98/15570), human GAL1 (PCT International Publication No. WO 95/2260) human GAL2 (PCT International Publication No. WO 97/26853).
as §1

[5] = target: T5, human 5HT1E receptor (Homo sapiens, UniProt P28566); assay: Radioligand binding at human 5HT1E receptor; conditions: read-out: h5HT1E Ki
T5 construct: expressed in transfected cells
T5 sequence (P28566 whole entry): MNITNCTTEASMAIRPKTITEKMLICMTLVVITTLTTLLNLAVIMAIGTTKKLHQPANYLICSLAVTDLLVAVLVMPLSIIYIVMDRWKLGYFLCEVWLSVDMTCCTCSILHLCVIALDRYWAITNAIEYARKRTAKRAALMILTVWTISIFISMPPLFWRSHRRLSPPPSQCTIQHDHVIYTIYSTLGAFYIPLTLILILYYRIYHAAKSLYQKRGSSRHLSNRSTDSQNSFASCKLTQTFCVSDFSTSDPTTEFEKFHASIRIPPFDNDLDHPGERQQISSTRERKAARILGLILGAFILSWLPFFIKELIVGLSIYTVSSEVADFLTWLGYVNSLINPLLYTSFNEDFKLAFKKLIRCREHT
Experimental: Human 5HT1B, 5HT1D, 5HT1E, 5HT1F, and 5HT7 ReceDtors: The cell lysates of LM(tk-) clonal cell line stably transfected with the genes encoding each of these 5HT receptor-subtypes were prepared as described above. Cell membranes were suspended in 50 mM Tris-HCl buffer (pH 7.4 at 37° C.) containing 10 mM MgCl2, 0.2 mM EDTA, 10 µM pargyline, and 0.1% ascorbate. […] Nonspecific binding was determined in the presence of 10 μM serotonin. The bound radioligand was separated by filtration through GF/B filters using a cell harvester.
as §1

T1 sequence (P31652 whole entry): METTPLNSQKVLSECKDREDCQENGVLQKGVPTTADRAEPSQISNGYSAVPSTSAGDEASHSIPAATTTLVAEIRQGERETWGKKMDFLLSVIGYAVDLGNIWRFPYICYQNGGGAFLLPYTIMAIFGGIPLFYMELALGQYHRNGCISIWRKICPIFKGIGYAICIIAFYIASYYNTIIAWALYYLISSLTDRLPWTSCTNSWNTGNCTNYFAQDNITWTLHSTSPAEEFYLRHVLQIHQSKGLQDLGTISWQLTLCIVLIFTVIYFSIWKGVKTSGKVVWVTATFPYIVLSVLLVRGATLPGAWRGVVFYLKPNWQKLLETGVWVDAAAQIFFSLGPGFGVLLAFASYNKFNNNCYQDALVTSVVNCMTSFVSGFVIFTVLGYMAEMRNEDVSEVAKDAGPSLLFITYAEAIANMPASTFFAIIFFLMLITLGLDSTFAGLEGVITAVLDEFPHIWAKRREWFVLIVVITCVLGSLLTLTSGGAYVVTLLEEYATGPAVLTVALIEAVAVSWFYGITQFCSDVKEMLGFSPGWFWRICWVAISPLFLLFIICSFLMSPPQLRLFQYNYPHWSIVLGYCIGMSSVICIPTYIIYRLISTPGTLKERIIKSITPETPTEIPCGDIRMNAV

## O=C1C(=Nc2cccc(C(F)(F)F)c2)c2ccccc2N1c1ccccc1 [Example 92, 1-PHENYL-3-[[3-(TRIFLUOROMETHYL)PHENYL]IMINO]-1,3-DIHYDRO-2H-INDOL-2-ONE]
[1]
  Ki: 45.1 µM
[2]
  Ki: 72 nM
[3]
  Ki: 29.3 µM
[4]
  Ki: > 10000 nM
[5]
  Ki: 18.9 µM
